Measured values as given in ChEMBL document CHEMBL4725412, “Augmenting the Activity of Macrolide Adjuvants against Acinetobacter baumannii” (2020).

Assays:
Type in all cases: functional
Acinetobacter baumannii [1] = assay: Potentiation of clarithromycin-induced antibacterial activity against Acinetobacter baumannii AB5075 assessed as clarithromycin MIC at 15 uM incubated for 16 hrs by broth microdilution method (reference value: […] ug/ml)
Acinetobacter baumannii [2] = assay: Potentiation of clarithromycin-induced antibacterial activity against Acinetobacter baumannii 4052 assessed as fold reduction in clarithromycin MIC at 7.5 uM incubated for 16 hrs by broth microdilution method
Acinetobacter baumannii [3] = assay: Potentiation of clarithromycin-induced antibacterial activity against Acinetobacter baumannii 3806 assessed as fold reduction in clarithromycin MIC at 7.5 uM incubated for 16 hrs by broth microdilution method
Acinetobacter baumannii [4] = assay: Potentiation of clarithromycin-induced antibacterial activity against Acinetobacter baumannii 3560 assessed as fold reduction in clarithromycin MIC at 7.5 uM incubated for 16 hrs by broth microdilution method
Acinetobacter baumannii [5] = assay: Antibacterial activity against Acinetobacter baumannii 4052 assessed as reduction in microbial growth incubated for 16 hrs by broth microdilution method
Acinetobacter baumannii [6] = assay: Potentiation of clarithromycin-induced antibacterial activity against Acinetobacter baumannii 4025 assessed as fold reduction in clarithromycin MIC at 7.5 uM incubated for 16 hrs by broth microdilution method
Acinetobacter baumannii [7] = assay: Potentiation of clarithromycin-induced antibacterial activity against Acinetobacter baumannii 4878 assessed as fold reduction in clarithromycin MIC at 7.5 uM incubated for 16 hrs by broth microdilution method
Acinetobacter baumannii [8] = assay: Antibacterial activity against Acinetobacter baumannii 3560 assessed as reduction in microbial growth incubated for 16 hrs by broth microdilution method
Acinetobacter baumannii [9] = assay: Antibacterial activity against Acinetobacter baumannii 4795 assessed as reduction in microbial growth incubated for 16 hrs by broth microdilution method
Acinetobacter baumannii [10] = assay: Potentiation of clarithromycin-induced antibacterial activity against Acinetobacter baumannii 4456 assessed as fold reduction in clarithromycin MIC at 7.5 uM incubated for 16 hrs by broth microdilution method
Acinetobacter baumannii [11] = assay: Potentiation of clarithromycin-induced antibacterial activity against Acinetobacter baumannii AB5075 assessed as clarithromycin MIC at 5 uM incubated for 16 hrs by broth microdilution method (reference value: […] ug/ml)
Acinetobacter baumannii [12] = assay: Antibacterial activity against Acinetobacter baumannii 4957 assessed as reduction in microbial growth incubated for 16 hrs by broth microdilution method
Acinetobacter baumannii [13] = assay: Potentiation of clarithromycin-induced antibacterial activity against Acinetobacter baumannii 5197 assessed as fold reduction in clarithromycin MIC at 7.5 uM incubated for 16 hrs by broth microdilution method
Acinetobacter baumannii [14] = assay: Potentiation of clarithromycin-induced antibacterial activity against Acinetobacter baumannii 4957 assessed as fold reduction in clarithromycin MIC at 7.5 uM incubated for 16 hrs by broth microdilution method
Acinetobacter baumannii [15] = assay: Antibacterial activity against Acinetobacter baumannii 4878 assessed as reduction in microbial growth incubated for 16 hrs by broth microdilution method
Acinetobacter baumannii [16] = assay: Antibacterial activity against Acinetobacter baumannii 4025 assessed as reduction in microbial growth incubated for 16 hrs by broth microdilution method
Acinetobacter baumannii [17] = assay: Potentiation of clarithromycin-induced antibacterial activity against Acinetobacter baumannii 5001 assessed as fold reduction in clarithromycin MIC at 7.5 uM incubated for 16 hrs by broth microdilution method
Acinetobacter baumannii [18] = assay: Antibacterial activity against Acinetobacter baumannii 4269 assessed as reduction in microbial growth incubated for 16 hrs by broth microdilution method
Acinetobacter baumannii [19] = assay: Potentiation of clarithromycin-induced antibacterial activity against Acinetobacter baumannii 4857 assessed as fold reduction in clarithromycin MIC at 7.5 uM incubated for 16 hrs by broth microdilution method
Acinetobacter baumannii [20] = assay: Potentiation of clarithromycin-induced antibacterial activity against Acinetobacter baumannii 4991 assessed as fold reduction in clarithromycin MIC at 7.5 uM incubated for 16 hrs by broth microdilution method
Acinetobacter baumannii [21] = assay: Antibacterial activity against Acinetobacter baumannii AB5075 assessed as reduction in microbial growth incubated for 16 hrs by broth microdilution method
Acinetobacter baumannii [22] = assay: Potentiation of clarithromycin-induced antibacterial activity against Acinetobacter baumannii 3927 assessed as fold reduction in clarithromycin MIC at 7.5 uM incubated for 16 hrs by broth microdilution method
Acinetobacter baumannii [23] = assay: Antibacterial activity against Acinetobacter baumannii 4448 assessed as reduction in microbial growth incubated for 16 hrs by broth microdilution method
Acinetobacter baumannii [24] = assay: Antibacterial activity against Acinetobacter baumannii 3927 assessed as reduction in microbial growth incubated for 16 hrs by broth microdilution method
Acinetobacter baumannii [25] = assay: Potentiation of clarithromycin-induced antibacterial activity against Acinetobacter baumannii 4490 assessed as fold reduction in clarithromycin MIC at 7.5 uM incubated for 16 hrs by broth microdilution method
Acinetobacter baumannii [26] = assay: Antibacterial activity against Acinetobacter baumannii 3785 assessed as reduction in microbial growth incubated for 16 hrs by broth microdilution method
Acinetobacter baumannii [27] = assay: Potentiation of clarithromycin-induced antibacterial activity against Acinetobacter baumannii 8967 assessed as fold reduction in clarithromycin MIC at 7.5 uM incubated for 16 hrs by broth microdilution method
Acinetobacter baumannii [28] = assay: Antibacterial activity against Acinetobacter baumannii 5256 assessed as reduction in microbial growth incubated for 16 hrs by broth microdilution method
Acinetobacter baumannii [29] = assay: Antibacterial activity against Acinetobacter baumannii 4026 assessed as reduction in microbial growth incubated for 16 hrs by broth microdilution method
Acinetobacter baumannii [30] = assay: Potentiation of clarithromycin-induced antibacterial activity against Acinetobacter baumannii 3785 assessed as fold reduction in clarithromycin MIC at 7.5 uM incubated for 16 hrs by broth microdilution method
Acinetobacter baumannii [31] = assay: Antibacterial activity against Acinetobacter baumannii 5001 assessed as reduction in microbial growth incubated for 16 hrs by broth microdilution method
Acinetobacter baumannii [32] = assay: Antibacterial activity against Acinetobacter baumannii 8967 assessed as reduction in microbial growth incubated for 16 hrs by broth microdilution method
Acinetobacter baumannii [33] = assay: Potentiation of clarithromycin-induced antibacterial activity against Acinetobacter baumannii 4795 assessed as fold reduction in clarithromycin MIC at 7.5 uM incubated for 16 hrs by broth microdilution method
Acinetobacter baumannii [34] = assay: Antibacterial activity against Acinetobacter baumannii 4857 assessed as reduction in microbial growth incubated for 16 hrs by broth microdilution method
Acinetobacter baumannii [35] = assay: Antibacterial activity against Acinetobacter baumannii 4490 assessed as reduction in microbial growth incubated for 16 hrs by broth microdilution method
Acinetobacter baumannii [36] = assay: Antibacterial activity against Acinetobacter baumannii 5711 assessed as reduction in microbial growth incubated for 16 hrs by broth microdilution method
Acinetobacter baumannii [37] = assay: Antibacterial activity against Acinetobacter baumannii 4456 assessed as reduction in microbial growth incubated for 16 hrs by broth microdilution method
Acinetobacter baumannii [38] = assay: Antibacterial activity against Acinetobacter baumannii 4027 assessed as reduction in microbial growth incubated for 16 hrs by broth microdilution method
Acinetobacter baumannii [39] = assay: Potentiation of clarithromycin-induced antibacterial activity against Acinetobacter baumannii 4027 assessed as fold reduction in clarithromycin MIC at 7.5 uM incubated for 16 hrs by broth microdilution method
Acinetobacter baumannii [40] = assay: Antibacterial activity against Acinetobacter baumannii 5197 assessed as reduction in microbial growth incubated for 16 hrs by broth microdilution method
Acinetobacter baumannii [41] = assay: Potentiation of clarithromycin-induced antibacterial activity against Acinetobacter baumannii AB5075 assessed as clarithromycin MIC at 7.5 uM incubated for 16 hrs by broth microdilution method (reference value: […] ug/ml)

SMILES: Cl.Nc1nc(-c2ccc(NC(=O)Nc3cc(Br)cc(Br)c3)cc2)c[nH]1
- MIC (Acinetobacter baumannii [1]): 0.125 µg/mL
- fold change (FC) (Acinetobacter baumannii [2]): 16
- fold change (FC) (Acinetobacter baumannii [3]): 16
- fold change (FC) (Acinetobacter baumannii [4]): 16
- MIC (Acinetobacter baumannii [5]): 25 µM
- fold change (FC) (Acinetobacter baumannii [6]): 16
- fold change (FC) (Acinetobacter baumannii [7]): 16
- MIC (Acinetobacter baumannii [8]): 25 µM
- MIC (Acinetobacter baumannii [9]): 25 µM
- fold change (FC) (Acinetobacter baumannii [10]): 16
- MIC (Acinetobacter baumannii [11]): 4 µg/mL
- MIC (Acinetobacter baumannii [12]): 25 µM
- fold change (FC) (Acinetobacter baumannii [13]): 16
- fold change (FC) (Acinetobacter baumannii [14]): 16
- MIC (Acinetobacter baumannii [15]): 25 µM
- MIC (Acinetobacter baumannii [16]): 25 µM
- fold change (FC) (Acinetobacter baumannii [17]): 16
- MIC (Acinetobacter baumannii [18]): 25 µM
- fold change (FC) (Acinetobacter baumannii [19]): 16
- fold change (FC) (Acinetobacter baumannii [20]): 16
- MIC (Acinetobacter baumannii [21]): 50 µM
- fold change (FC) (Acinetobacter baumannii [22]): 16
- MIC (Acinetobacter baumannii [23]): 25 µM
- MIC (Acinetobacter baumannii [24]): 25 µM
- fold change (FC) (Acinetobacter baumannii [25]): 16
- MIC (Acinetobacter baumannii [26]): 25 µM
- fold change (FC) (Acinetobacter baumannii [27]): 16
- MIC (Acinetobacter baumannii [28]): 25 µM
- MIC (Acinetobacter baumannii [29]): 25 µM
- fold change (FC) (Acinetobacter baumannii [30]): 16
- MIC (Acinetobacter baumannii [31]): 25 µM
- MIC (Acinetobacter baumannii [32]): 25 µM
- fold change (FC) (Acinetobacter baumannii [33]): 16
- MIC (Acinetobacter baumannii [34]): 25 µM
- MIC (Acinetobacter baumannii [35]): 25 µM
- MIC (Acinetobacter baumannii [36]): 25 µM
- MIC (Acinetobacter baumannii [37]): 25 µM
- MIC (Acinetobacter baumannii [38]): 25 µM
- fold change (FC) (Acinetobacter baumannii [39]): 16
- MIC (Acinetobacter baumannii [40]): 25 µM
- MIC (Acinetobacter baumannii [41]): 0.25 µg/mL
